Legend:
[1] = system: thioglycolate elected murine peritoneal exudate cells; experiment: RNI generation by thioglycolate-elicited peritoneal exudate cells; assay type: cell-based; settings: for RNI (reactive nitrogen intermediate): RNIP 50 nm
Experimental: From the sequence of the CAP18 cDNA, it was apparent that the putative N-terminal peptide of CAP18 was in fact an internal fragment of the CAP18 protein. We therefore tried to reconfirm the original protein sequence. Neutrophil-derived heparin bound cationic proteins were prepared as described above and applied to a C18 reverse phase HPLC (FIG. 1). We sequenced the major peaks. Peaks at fractions 14.5 and 15.2 correspond to defensins MCP1 and MCP2 (Territo et al. (1989) J. Clin. Invest. 84:2017-2019), respectively. Fraction 25.8 is macrophage related protein 14 (MRP14) (Odink et al. (1987) Nature 330:80-82). The fraction at 20.3 minutes corresponds to a fragment of CAP18 of approximately 4-5 kD. […] The murine macrophage cell line RAW 264.7 (obtained from ATCC) and thioglycolate-elicited murine peritoneal exudate cells are used to produce RNI. Cells are cultured at 1×10^6 /ml. in RPMI-1640 +2.5% FCS in 24 well plates in the presence or absence of different concentrations of LPS or murine rlFNγ. After 24 hr. incubation at 37° C. the cell free supernatant is collected and tested for the presence of RNI. Accumulation of nitrite in the medium is measured by a colorimetric assay based on the Griess reaction (Green et al. (1982) Anal. Biochem. 126:11) using sodium nitrite as standards. Sample (50 μl) is mixed with 50 μl of Griess reagent (1% sulfanilamide, 0.1% naphthalene diamine dihydrochloride, 2.5% H3 PO4) and after 10 min. at room temperature absorbance is read at 570 nm.

E. coli (HB101) = experiment: Bacterial proliferation, 3H-thymidine incorporation; assay type: cell-based
Experimental: (§1) Bacteria were grown in trypticase broth overnight.
(§2) To corroborate the anti-bacterial activity shown in the CFU assays, inhibition of proliferation of bacteria was tested directly using a ^3 H-thymidine incorporation assay. […] In summary although there is some strain to strain variation in the IC50, all of the Gram-negativestrains tested in two different types of assays were sensitive to these anti-microbial peptides.

Klebsiella pneumoniae = experiment: as above; assay type: cell-based
Experimental: as §1, §2

Pseudomonas aeruginosa = experiment: as above; assay type: cell-based
Experimental: as §1, §2

Pseudomonas apacia = experiment: as above; assay type: cell-based
Experimental: as §1, §2

[2] = system: Staphylococcus aureus, coagulase positive; experiment: as above; assay type: cell-based
Experimental: as §1, §2

Streptococcus pneumoniae = experiment: as above; assay type: cell-based
Experimental: as §1, §2

Streptococcus pyogenes = experiment: as above; assay type: cell-based
Experimental: as §1, §2

human mononuclear cells = experiment: LPS-induced tissue factor by human mononuclear cells; assay type: cell-based; settings: for Δ Units (%): LPS alone 100, 960 min
Experimental: Human mononuclear cells were separated from citrated peripheral blood by centrifugation over Sodium-metrizoate-Ficoll (lymphocyte Separation Medium, Japan Antibody Institute, Gumma). The resulting mixed mononuclear cell suspension was washed 3 times with RPMI 1640 media. Cell suspension (1×10^6 /ml) was stimulated with LPS for 16 to 18 hr.
Veronal buffered saline (VBS) was added to the cell pellet, lysed by 3 cycles of freeze/thaw and sonicated for 10 sec with a hand-held sonicator microbe (Handy Sonic, model UR-20P, Tomy Seiko LTD, Tokyo). Tissue factor activity was tested in modified unactivated partial thromboplastin time (7). One tenth ml of cell lysate (1×10^6 /ml) was preincubated with mouse plasma at 37° C. for 3 min. Then 0.1 ml of 25 mM-CaCl2 which contains phospholipid was added to the mixture and clotting time was measured using a fibrometer (Bio Quest Division, Becton Dickinson, Cokeysville, USA). A standard curve obtained from serial two-fold dilutions of rabbit brain thromboplastic (Simplastin, Ono Pharmaceutical Co.) was used to transpose tissue factor activity into arbitrary tissue factor units (1 μg/ml) suspension of rabbit brain was assigned a value of 1,000 units).
The mean tissue factor units+standard error was determined from three to four samples. Student's t test for unpair data was used to determine the statistically significant differences. A two-tailed P value of <0.05 was considered significant.
S. minnesota SmoothLPS (2 μg/ml) was preincubated with equal volume of
each LPSbinding protein (28HA) at 37° C. for 45 minutes, and the
mixture was added to the cells and cultured for 16 hours.

RAW 264.7 cells = experiment: Reversal of LPS-induced inhibition of RAW 264.7 cell proliferation; assay type: cell-based, murine; settings: 5 ng/ml of LPS; FIG. 8
Experimental: When LPS is added to RAW 264.7 cells it causes a dose-dependent inhibition of proliferation with differentiation of the cells into a macrophage phenotype.

[3] = system: E. coli 09:K39 K^- strain; experiment: Antibacterial CFU assay; settings: FIG. 6H
[4] = system: E. coli 09:K39 K^+ strain; experiment: Antibacterial CFU assay; settings: FIG. 6H
E. coli = experiment: Antibacterial CFU assay; settings: read-out: IC50, inhibition of CFU; FIG. 6I
[5] = RNIP 6 μg/ml (so in the source)
[6] = first experiment, LPS 0.1 μg/ml
[7] = second experiment, LPS 0.1 μg/ml

## RNIP: reactive nitrogen inhibitory protein, amino acids 135-171 of SEQ ID NO:4 (rabbit CAP18 C-terminus); purified from granulocytes or synthetic (#197) (GLRKRLRKFRNKIKEKLKKIGQKIQGLLPKLAPRTDY)
[1]; IFN 500 U/ml, without RNIP 4.0 ± 0.8
  RNI (reactive nitrogen intermediate): 1.1 µM
[1]; LPS + IFNγ 1 ng + 500 U/ml, without RNIP 26 ± 0.6
  RNI (reactive nitrogen intermediate): 14 ± 0.7 µM
[1]; read-out: IC50 for inhibition of gamma interferon stimulated nitrogen radical release
  IC50: < 50 nM
E. coli (HB101); RNIP 1.25 μg/ml
  Percent inhibition of proliferation: 88%
E. coli (HB101); RNIP 2.5 μg/ml
  Percent inhibition of proliferation: 99%
E. coli (HB101); RNIP 2.5 μg/ml, FCS 0 %
  Inhibition (%) of proliferation: 94 ± 10.3%
E. coli (HB101); RNIP 2.5 μg/ml, FCS 1 %
  Inhibition (%) of proliferation: 91 ± 10.9%
E. coli (HB101); RNIP 2.5 μg/ml, FCS 5 %
  Inhibition (%) of proliferation: 87 ± 3.1%
E. coli (HB101); RNIP 2.5 μg/ml, FCS 10 %
  Inhibition (%) of proliferation: 78 ± 5.5%
E. coli (HB101); RNIP 5.0 μg/ml
  Percent inhibition of proliferation: 99%
E. coli (HB101); [5]
  Percent inhibition of proliferation: 81%
Klebsiella pneumoniae; RNIP 1.25 μg/ml
  Percent inhibition of proliferation: 14%
Klebsiella pneumoniae; RNIP 2.5 μg/ml
  Percent inhibition of proliferation: 17%
Klebsiella pneumoniae; RNIP 5.0 μg/ml
  Percent inhibition of proliferation: 60%
Klebsiella pneumoniae; [5]
  Percent inhibition of proliferation: 4%
Pseudomonas aeruginosa; RNIP 1.25 μg/ml
  Percent inhibition of proliferation: 82%
Pseudomonas aeruginosa; RNIP 2.5 μg/ml
  Percent inhibition of proliferation: 96%
Pseudomonas aeruginosa; RNIP 5.0 μg/ml
  Percent inhibition of proliferation: 99%
Pseudomonas aeruginosa; [5]
  Percent inhibition of proliferation: 75%
Pseudomonas apacia; RNIP 1.25 μg/ml
  Percent inhibition of proliferation: 80%
Pseudomonas apacia; RNIP 2.5 μg/ml
  Percent inhibition of proliferation: 99%
Pseudomonas apacia; RNIP 5.0 μg/ml
  Percent inhibition of proliferation: 99%
Pseudomonas apacia; [5]
  Percent inhibition of proliferation: 81%
[2]; RNIP 1.25 μg/ml
  Percent inhibition of proliferation: 57%
[2]; RNIP 2.5 μg/ml
  Percent inhibition of proliferation: 72%
[2]; RNIP 5.0 μg/ml
  Percent inhibition of proliferation: 83%
[2]; [5]
  Percent inhibition of proliferation: 23%
Streptococcus pneumoniae; RNIP 1.25 μg/ml
  Percent inhibition of proliferation: 47%
Streptococcus pneumoniae; RNIP 2.5 μg/ml
  Percent inhibition of proliferation: 68%
Streptococcus pneumoniae; RNIP 5.0 μg/ml
  Percent inhibition of proliferation: 93%
Streptococcus pneumoniae; [5]
  Percent inhibition of proliferation: 31%
Streptococcus pyogenes; RNIP 1.25 μg/ml
  Percent inhibition of proliferation: 79%
Streptococcus pyogenes; RNIP 2.5 μg/ml
  Percent inhibition of proliferation: 90%
Streptococcus pyogenes; RNIP 5.0 μg/ml
  Percent inhibition of proliferation: 96%
Streptococcus pyogenes; [5]
  Percent inhibition of proliferation: 74%
Human mononuclear cells; [6]
  Inhibition (%): 51%
  Δ Units (%): 49%
Human mononuclear cells; first experiment, LPS 0.1 μg/ml, LPS alone 16.6
  Tissue Factor, figure in parentheses (relative to unstimulated = 1.0): 9.0
Human mononuclear cells; first experiment, LPS 0.1 μg/ml, LPS alone 17118
  Δ Units: 8342
Human mononuclear cells; first experiment, LPS 0.1 μg/ml, LPS alone 18214 ± 4192, RNIP 2 HA units, CAP-18 1 HA unit
  Tissue Factor: 9438 ± 293 Units × 10^3 /3.6 × 10^4 cells
Human mononuclear cells; [7]
  Inhibition (%): 41%
  Δ Units (%): 59%
Human mononuclear cells; second experiment, LPS 0.1 μg/ml, LPS alone 14.7
  Tissue Factor, figure in parentheses (relative to unstimulated = 1.0): 9.0
Human mononuclear cells; second experiment, LPS 0.1 μg/ml, LPS alone 6726
  Δ Units: 3950
Human mononuclear cells; second experiment, LPS 0.1 μg/ml, LPS alone 7218 ± 264, HA units HP-1 4, HP-2 2, RNIP 2, CAP-18 1
  Tissue Factor: 4442 ± 982 Units × 10^3 /3.6 × 10^4 cells
Human mononuclear cells; second experiment, no LPS
  Tissue Factor, figure in parentheses (relative to unstimulated = 1.0): 1.3
  Δ Units: 144
Human mononuclear cells; second experiment, no LPS, unstimulated 492 ± 75
  Tissue Factor: 636 ± 141 Units × 10^3 /3.6 × 10^4 cells
RAW 264.7 cells
  effect on LPS-induced inhibition of proliferation: reverses the inhibition of proliferation
[3]
  anti-bacterial IC50: 0.68 µg/mL
[3]; read-out: anti-bacterial IC50
  IC50: 110 nM
[4]
  anti-bacterial IC50: 0.14 µg/mL
[4]; read-out: anti-bacterial IC50
  IC50: 20 nM
E. coli
  IC50: 80 nM

From patent US5618675A, “Methods and compositions for detecting lipopolysaccharides using CAP18 fragments” (Panorama Research, Inc., dated 1997)
